30 molecules from patent publication US10370343B2, “[6,6] Fused bicyclic HDAC8 inhibitors” (FORMA Therapeutics, Inc., priority 2015, dated 2019) can be followed below.

Some results are limits rather than exact numbers.

One may read the IC50 as the midpoint of a concentration-inhibition curve.

The test concerns the target T1, Recombinant N-terminal GST tag full-length human HDAC8 (Homo sapiens, UniProt Q9BY41).
T1 construct: Recombinant N-terminal GST tag full-length human HDAC8; purchased SignalChem H90-30G-1000; host or cells: baculovirus in Sf9 insect cells
T1 sequence (Q9BY41 1-377): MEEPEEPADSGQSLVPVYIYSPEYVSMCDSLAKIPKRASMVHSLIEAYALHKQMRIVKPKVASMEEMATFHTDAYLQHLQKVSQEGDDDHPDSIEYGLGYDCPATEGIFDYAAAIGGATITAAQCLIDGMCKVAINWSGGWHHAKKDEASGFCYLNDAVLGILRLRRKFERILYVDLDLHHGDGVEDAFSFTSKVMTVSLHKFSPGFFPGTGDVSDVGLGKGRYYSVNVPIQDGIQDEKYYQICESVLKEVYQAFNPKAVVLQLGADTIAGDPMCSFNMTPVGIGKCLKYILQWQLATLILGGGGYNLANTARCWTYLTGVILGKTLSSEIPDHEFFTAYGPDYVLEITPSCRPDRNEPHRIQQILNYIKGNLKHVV
Put plainly: HDAC8 probe binding assay, time resolved fluorescence (TRF) format. The conditions noted are these: compounds grouped by IC50 range (Table 2). On the procedure:
The HDAC8 probe binding assay was performed using a time resolved fluorescence (TRF) assay format. Recombinant N-terminal GST tag full-length human HDAC8 was expressed and purified from baculovirus in Sf9 insect cells (SignalChem, #[…]-1000). […] Plates were incubated for 16 hours at room temperature before time resolved fluorescence was read on the Envision (Excitation at 340 nm, and Emission at 485 nm and 535 nm, Perkin Elmer). Data from HDAC8 Assays were reported as percent inhibition (inh) compared with control wells based on the following equation: % inh=1-((FLU-AveLow)/(AveHigh-AveLow)) where FLU=measured time resolved fluorescence. AveLow=average time resolved fluorescence of no enzyme control (n=32). AveHigh=average time resolved fluorescence of DMSO control (n=32). IC50 values were determined by curve fitting of the standard 4 parameter logistic fitting algorithm included in the Activity Base software package: IDBS XE Designer Model205. Data is fitted using the Levenburg Marquardt algorithm. Ranges of IC50 values for compounds of the invention are disclosed in Table 2: Table 2. provides the compounds arranged according to […] determined in a time resolved fluorescence (TRF) assay. The compounds are separated into four groups: […]
Regarding `COCCOc1ccc(CN2C(=O)COc3ccc(C(=O)NO)cc32)cc1` [Compound I-196, N-hydroxy-4-(4-(2-methoxyethoxy)benzyl)-3-oxo-3,4-dihydro-2H-benzo[b][1,4]oxazine-6-carboxamide], the IC50 was no more than 25 nM.
For `COCCOc1cccc(CN2C(=O)COc3ccc(C(=O)NO)cc32)c1` [Compound I-197, N-hydroxy-4-(3-(2-methoxyethoxy)benzyl)-3-oxo-3,4-dihydro-2H-benzo[b][1,4]oxazine-6-carboxamide], the IC50 was no more than 25 nM.
In the case of `O=C(NO)c1ccc2c(c1)N(CC1CCN(c3ccccc3)CC1)C(=O)CO2` [Compound I-198, N-hydroxy-3-oxo-4-((1-phenylpiperidin-4-yl)methyl)-3,4-dihydro-2H-benzo[b][1,4]oxazine-6-carboxamide], the IC50 was 25 to 100 nM.
Then `O=C(NO)c1ccc2c(c1)N(Cc1c[nH]c3ccccc13)C(=O)CO2` [Compound I-200, 4-((1H-indol-3-yl)methyl)-N-hydroxy-3-oxo-3,4-dihydro-2H-benzo[b][1,4]oxazine-6-carboxamide], with 25 to 100 nM; and `N#Cc1c(CN2C(=O)COc3ccc(C(=O)NO)cc32)cn2ccccc12` [Compound I-201, 4-((1-cyanoindolizin-2-yl)methyl)-N-hydroxy-3-oxo-3,4-dihydro-2H-benzo[b][1,4]oxazine-6-carboxamide], with no more than 25 nM.
Next, `O=C(NO)c1ccc2c(c1)N(Cc1nc(-c3ccccc3)co1)C(=O)CO2` [Compound I-202, N-hydroxy-3-oxo-4-((4-phenyloxazol-2-yl)methyl)-3,4-dihydro-2H-benzo[b][1,4]oxazine-6-carboxamide]: no more than 25 nM; `O=C(NO)c1ccc2c(c1)N(Cc1n[nH]c3ccccc13)C(=O)CO2` [Compound I-203, 4-((1H-indazol-3-yl)methyl)-N-hydroxy-3-oxo-3,4-dihydro-2H-benzo[b][1,4]oxazine-6-carboxamide]: 25 to 100 nM.
As for `O=C(NO)c1ccc2c(c1)N(Cc1cc(-c3ccccc3)[nH]n1)C(=O)CO2` [Compound I-204, N-hydroxy-3-oxo-4-[(5-phenyl-1H-pyrazol-3-yl)methyl]-3,4-dihydro-2H-1,4-benzoxazine-6-carboxamide], the IC50 was no more than 25 nM.
Then `O=C(NO)c1ccc2c(c1)N(Cc1cn(-c3ccccc3)cn1)C(=O)CO2` [Compound I-205, N-hydroxy-3-oxo-4-((1-phenyl-1H-imidazol-4-yl)methyl)-3,4-dihydro-2H-benzo[b][1,4]oxazine-6-carboxamide], with 25 to 100 nM; and `O=C(NO)c1ccc2c(c1)N(Cc1cnn(C3CC3)c1)C(=O)CO2` [Compound I-206, 4-((1-cyclopropyl-1H-pyrazol-4-yl)methyl)-N-hydroxy-3-oxo-3,4-dihydro-2H-benzo[b][1,4]oxazine-6-carboxamide], with 25 to 100 nM.
On to `Cc1cnc2sc(CN3C(=O)COc4ccc(C(=O)NO)cc43)nc2c1` [Compound I-207, N-hydroxy-4-((6-methylthiazolo[5,4-b]pyridin-2-yl)methyl)-3-oxo-3,4-dihydro-2H-benzo[b][1,4]oxazine-6-carboxamide], for which the concentration for half-maximal inhibition (IC50) was no more than 25 nM.
`COc1cnc2sc(CN3C(=O)COc4ccc(C(=O)NO)cc43)nc2c1` [Compound I-208, N-hydroxy-4-((6-methoxythiazolo[5,4-b]pyridin-2-yl)methyl)-3-oxo-3,4-dihydro-2H-benzo[b][1,4]oxazine-6-carboxamide]: the IC50 is no more than 25 nM.
On to `O=C(NO)c1ccc2c(c1)N(Cc1nc3cc(Cl)cnc3s1)C(=O)CO2` [Compound I-209, 4-((6-chlorothiazolo[5,4-b]pyridin-2-yl)methyl)-N-hydroxy-3-oxo-3,4-dihydro-2H-benzo[b][1,4]oxazine-6-carboxamide], for which the IC50 was no more than 25 nM.
Turning to `Cc1ccc2nc(CN3C(=O)COc4ccc(C(=O)NO)cc43)sc2n1` [Compound I-210, N-hydroxy-4-((5-methylthiazolo[5,4-b]pyridin-2-yl)methyl)-3-oxo-3,4-dihydro-2H-benzo[b][1,4]oxazine-6-carboxamide], the IC50 is no more than 25 nM.
Consider `COc1ccc2nc(CN3C(=O)COc4ccc(C(=O)NO)cc43)sc2n1` [Compound I-211, N-hydroxy-4-((5-methoxythiazolo[5,4-b]pyridin-2-yl)methyl)-3-oxo-3,4-dihydro-2H-benzo[b][1,4]oxazine-6-carboxamide], for which the IC50 is no more than 25 nM.
In the case of `O=C(NO)c1ccc2c(c1)N(Cc1nc3ccc(C(F)(F)F)nc3s1)C(=O)CO2` [Compound I-212, N-hydroxy-3-oxo-4-((5-(trifluoromethyl)thiazolo [5,4-b]pyridin-2-yl)methyl)-3,4-dihydro-2H-benzo[b][1,4]oxazine-6-carboxamide], the IC50 was 25 to 100 nM.
Then `O=C(NO)c1ccc2c(c1)N(Cc1ccncc1)C(=O)CO2` [Compound I-215, N-hydroxy-3-oxo-4-(pyridin-4-ylmethyl)-3,4-dihydro-2H-benzo[b][1,4]oxazine-6-carboxamide], with 25 to 100 nM.
Next, `O=C(NO)c1ccc2c(c1)N(Cc1cccc(Oc3ccccc3)c1)C(=O)CO2` [Compound I-220, N-hydroxy-3-oxo-4-(3-phenoxybenzyl)-3,4-dihydro-2H-benzo[b][1,4]oxazine-6-carboxamide]: no more than 25 nM.
Next, `CC1(C)Oc2ccc(C(=O)NO)cc2N(Cc2cccc(Oc3ccccc3)c2)C1=O` [Compound I-225, N-hydroxy-2,2-dimethyl-3-oxo-4-(3-phenoxybenzyl)-3,4-dihydro-2H-benzo[b][1,4]oxazine-6-carboxamide]: 25 to 100 nM; `O=C(NO)c1ccc2c(c1)N(Cc1cccc(Oc3ccc(Cl)cc3)c1)C(=O)CO2` [Compound I-226, 4-(3-(4-chlorophenoxy)benzyl)-N-hydroxy-3-oxo-3,4-dihydro-2H-benzo[b][1,4]oxazine-6-carboxamide]: no more than 25 nM; `CC1(C)Oc2ccc(C(=O)NO)cc2N(Cc2cccc(Oc3ccc(Cl)cc3)c2)C1=O` [Compound I-227, 4-(3-(4-chlorophenoxy)benzyl)-N-hydroxy-2,2-dimethyl-3-oxo-3,4-dihydro-2H-benzo[b][1,4]oxazine-6-carboxamide]: no more than 25 nM.
`O=C(NO)c1ccc2c(c1)N(Cc1ccc(Oc3ccccc3)cc1)C(=O)CO2` [Compound I-229, N-hydroxy-3-oxo-4-(4-phenoxybenzyl)-3,4-dihydro-2H-benzo[b][1,4]oxazine-6-carboxamide]: the IC50 was 25 to 100 nM.
Then `O=C(NO)c1ccc2c(c1)N(Cc1cccc3ccccc13)C(=O)CO2` [Compound I-230, N-hydroxy-4-(naphthalen-1-ylmethyl)-3-oxo-3,4-dihydro-2H-benzo[b][1,4]oxazine-6-carboxamide], with 25 to 100 nM.
Consider `O=C(NO)c1ccc2c(c1)N(Cc1ccc3ncccc3c1)C(=O)CO2` [Compound I-231, N-hydroxy-3-oxo-4-(quinolin-6-ylmethyl)-3,4-dihydro-2H-benzo[b][1,4]oxazine-6-carboxamide], for which the IC50 is no more than 25 nM.
`O=C(NO)c1ccc2c(c1)N(Cc1ccc3ccccc3n1)C(=O)CO2` [Compound I-232, N-hydroxy-3-oxo-4-(quinolin-2-ylmethyl)-3,4-dihydro-2H-benzo[b][1,4]oxazine-6-carboxamide]: the IC50 was no more than 25 nM.
Then `O=C(NO)c1ccc2c(c1)N(Cc1nc3ccc(C(F)(F)F)cc3o1)C(=O)CO2` [Compound I-233, N-hydroxy-3-oxo-4-((6-(trifluoromethyl)benzo[d]oxazol-2-yl)methyl)-3,4-dihydro-2H-benzo[b][1,4]oxazine-6-carboxamide], with no more than 25 nM; and `O=C(NO)c1ccc2c(c1)N(Cc1nc3cc(C(F)(F)F)ccc3o1)C(=O)CO2` [Compound I-234, N-hydroxy-3-oxo-4-((5-(trifluoromethyl)benzo[d]oxazol-2-yl)methyl)-3,4-dihydro-2H-benzo[b][1,4]oxazine-6-carboxamide], with no more than 25 nM; and `N#Cc1cccc(CN2C(=O)COc3ccc(C(=O)NO)cc32)c1` [Compound I-236, 4-(3-cyanobenzyl)-N-hydroxy-3-oxo-3,4-dihydro-2H-benzo[b][1,4]oxazine-6-carboxamide], with no more than 25 nM.
In the case of `N#Cc1ccc(CN2C(=O)COc3ccc(C(=O)NO)cc32)cc1` [Compound I-237, 4-(4-cyanobenzyl)-N-hydroxy-3-oxo-3,4-dihydro-2H-benzo[b][1,4]oxazine-6-carboxamide], the IC50 is no more than 25 nM.
Next, `Cn1cc2cc(CN3C(=O)COc4ccc(C(=O)NO)cc43)ccc2n1` [Compound I-238, N-hydroxy-4-((2-methyl-2H-indazol-5-yl)methyl)-3-oxo-3,4-dihydro-2H-benzo[b][1,4]oxazine-6-carboxamide]: no more than 25 nM.
